For test [1], the system named is RPMI-8226. As to the kind of experiment: Induction of apoptosis in human RPMI-8226 cells assessed as fold increase in caspase-3/7 activity at 0.87 uM. Format: functional.
The target in test [2] is Mitogen-activated protein kinase 9 (Homo sapiens, UniProt P45984). The test is described as follows: Inhibition of JNK2-alpha-2 (unknown origin) at 1 uM relative to control.
Test [3] deals with RPMI-8226. As to the kind of experiment: Induction of necrosis in human RPMI-8226 cells assessed as LDH release at 0.73 uM. Format: functional.

Consider 2 compounds from ChEMBL document CHEMBL5113453, “Design, synthesis, and biological evaluation of a new series of pyrazole derivatives: Discovery of potent and selective JNK3 kinase inhibitors” (Bioorg Med Chem, 2022).

Chain of Mitogen-activated protein kinase 9 (P45984 whole entry, looked up): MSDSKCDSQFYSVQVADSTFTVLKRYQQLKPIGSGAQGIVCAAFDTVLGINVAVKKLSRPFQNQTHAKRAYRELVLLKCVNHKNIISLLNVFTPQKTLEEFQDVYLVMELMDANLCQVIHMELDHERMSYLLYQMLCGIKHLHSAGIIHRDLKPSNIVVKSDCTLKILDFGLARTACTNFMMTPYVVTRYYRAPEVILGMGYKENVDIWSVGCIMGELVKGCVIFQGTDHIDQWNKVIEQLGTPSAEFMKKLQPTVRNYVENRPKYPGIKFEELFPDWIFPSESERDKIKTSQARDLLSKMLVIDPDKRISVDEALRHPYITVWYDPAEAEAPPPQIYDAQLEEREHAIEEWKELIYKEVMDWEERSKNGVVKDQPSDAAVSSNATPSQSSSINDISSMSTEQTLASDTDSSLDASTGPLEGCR

Consider `O=C(NCCCNc1cc(-c2cn(-c3ccccc3)nc2-c2cccc(O)c2)ccn1)Nc1ccc(F)cc1`, for which the “fold change (FC)” value in test [1] was determined as 1.84. In test [2], the inhibition amounted to 53%.

Consider `O=C(NCCCNc1cc(-c2cn(-c3ccccc3)nc2-c2cccc(O)c2)ccn1)Nc1cccc(C(F)(F)F)c1`, for which the Activity in test [3] was 6.7%.
